According to US12115149B2, “Formulations, methods, kits, and dosage forms” (MedRegen, LLC, priority 2020, dated 2024):
Like-named read-outs stand apart in the source and are kept apart here.

What was measured:
[1] = PK/PD study of Formulation A s.c. in mini pigs; details: Formulation A 0.132 ml/kg s.c.
Experimental: (§1) All samples were frozen and stored at −70° C. on receipt. The samples were analyzed by liquid chromatography with tandem mass spectral detection.

[2] = PK/PD study of Formulation A s.c. in SD rats; details: for absorption lag time after s.c. administration: Formulation A 0.744 ml/kg s.c.
Experimental: as §1

[3] = rat, in vivo, sc; for time by which cleared: SD
Experimental: as §1

[4] = pig, in vivo, sc
Experimental: as §1

[5] = Degradation of FK506 in a combination of the two APIs; type: physicochemical; details: combination of the two APIs in solution, earlier attempts; stated as 'may be'
[6] = cited from earlier work

Row | Molecule | blood level at 3 hours [1] | clearance from blood [1] | absorption lag time after s.c. administration [2] | time by which cleared [3] [h] | plasma level at 3 hours [3] | time of peak plasma concentration ([2]; Formulation A 0.744 ml/kg s.c. (AMD3100 17.856 mg/kg, FK506 0.372 mg/kg), n=12) [h] | blood level at 3 hours [4] | FK506 degraded [5] | solubility in water [6]
1 | c1cc(CN2CCCNCCNCCCNCC2)ccc1CN1CCCNCCNCCCNCC1 [AMD3100] | remained at high levels | cleared rapidly after 12 hours | no observable lag time | ≤ 12 | remained at high levels | – | – | – | –
2 | C=CC[C@@H]1/C=C(\C)C[C@H](C)C[C@H](OC)[C@H]2O[C@@](O)(C(=O)C(=O)N3CCCC[C@H]3C(=O)O[C@H](/C(C)=C/[C@@H]3CC[C@@H](O)[C@H](OC)C3)[C@H](C)[C@@H](O)CC1=O)[C@H](C)C[C@@H]2OC [FK506, Tacrolimus] | – | cleared rapidly after 12 hours | no observable lag time | ≤ 12 | remained at high levels | 1 | remained at high levels | About 50% | poor solubility in water
3 | AMD3100 octahydrochloride hydrate | – | – | – | – | – | – | – | – | 22 mg/mL
